From patent US7812183B2, “Benzopyran derivatives as potassium channel openers” (Janssen Pharmaceutica NV, priority 2005, dated 2010)

Target: T1, KATP channels (Homo sapiens, UniProt O60706+Q14654)
T1 construct: TE671 human medulloblastoma cells were obtained from ATCC; host or cells: TE671 human medulloblastoma cells
Experiment: Potassium Channel Assay (FLIPR membrane potential, TE671 cells)
Type: cell-based
Settings: TE671 human medulloblastoma cells, Membrane Potential Assay Dye, room temperature, hyperpolarization from KATP channel opening
Protocol: TE671 human medulloblastoma cells were obtained from ATCC and grown in Dulbecco's modified Eagle's medium (DMEM) supplemented with 10% fetal bovine serum, 100 U/ml penicillin and 100 U/ml streptomycine.
The day before testing, the cells were plated in black 96-well plates at 50K/well. On the day of testing, the growth media was removed, then 100 μl of FLIPR buffer (20 mM HEPES, 120 mM NaCl, 2 mM KCl, 2 mM CaCl2, 1 mM MgCl2, 5 mM Glucose) and 100 μl of Membrane Potential Assay Dye (Molecular Devices) dissolved in FLIPR buffer were added to each well. The cells were incubated at room temperature for 15 to 30 min.
The effect of test compounds on KATP channels were evaluated on a fluorometric imaging plate reader (FLIPR, Molecular Devices) at room temperature. After a baseline period, 50 μl of 5× stock solution of test compound prepared in FLIPR buffer was added and fluorescent change was monitored for 3 minutes. After this reading, glyburide, a KATP channel blocker, was added to a final concentration of 5 μM to check the specificity of the test compound as a KATP channel openers. Hyperpolarization resulting from KATP channel opening was observed as a decrease in fluorescent intensity.
Representative compounds of the present invention were tested according to the procedure described above, with results as listed in Table 7, below.

T1 sequence (O60706 1-1549 isoform O60706-2): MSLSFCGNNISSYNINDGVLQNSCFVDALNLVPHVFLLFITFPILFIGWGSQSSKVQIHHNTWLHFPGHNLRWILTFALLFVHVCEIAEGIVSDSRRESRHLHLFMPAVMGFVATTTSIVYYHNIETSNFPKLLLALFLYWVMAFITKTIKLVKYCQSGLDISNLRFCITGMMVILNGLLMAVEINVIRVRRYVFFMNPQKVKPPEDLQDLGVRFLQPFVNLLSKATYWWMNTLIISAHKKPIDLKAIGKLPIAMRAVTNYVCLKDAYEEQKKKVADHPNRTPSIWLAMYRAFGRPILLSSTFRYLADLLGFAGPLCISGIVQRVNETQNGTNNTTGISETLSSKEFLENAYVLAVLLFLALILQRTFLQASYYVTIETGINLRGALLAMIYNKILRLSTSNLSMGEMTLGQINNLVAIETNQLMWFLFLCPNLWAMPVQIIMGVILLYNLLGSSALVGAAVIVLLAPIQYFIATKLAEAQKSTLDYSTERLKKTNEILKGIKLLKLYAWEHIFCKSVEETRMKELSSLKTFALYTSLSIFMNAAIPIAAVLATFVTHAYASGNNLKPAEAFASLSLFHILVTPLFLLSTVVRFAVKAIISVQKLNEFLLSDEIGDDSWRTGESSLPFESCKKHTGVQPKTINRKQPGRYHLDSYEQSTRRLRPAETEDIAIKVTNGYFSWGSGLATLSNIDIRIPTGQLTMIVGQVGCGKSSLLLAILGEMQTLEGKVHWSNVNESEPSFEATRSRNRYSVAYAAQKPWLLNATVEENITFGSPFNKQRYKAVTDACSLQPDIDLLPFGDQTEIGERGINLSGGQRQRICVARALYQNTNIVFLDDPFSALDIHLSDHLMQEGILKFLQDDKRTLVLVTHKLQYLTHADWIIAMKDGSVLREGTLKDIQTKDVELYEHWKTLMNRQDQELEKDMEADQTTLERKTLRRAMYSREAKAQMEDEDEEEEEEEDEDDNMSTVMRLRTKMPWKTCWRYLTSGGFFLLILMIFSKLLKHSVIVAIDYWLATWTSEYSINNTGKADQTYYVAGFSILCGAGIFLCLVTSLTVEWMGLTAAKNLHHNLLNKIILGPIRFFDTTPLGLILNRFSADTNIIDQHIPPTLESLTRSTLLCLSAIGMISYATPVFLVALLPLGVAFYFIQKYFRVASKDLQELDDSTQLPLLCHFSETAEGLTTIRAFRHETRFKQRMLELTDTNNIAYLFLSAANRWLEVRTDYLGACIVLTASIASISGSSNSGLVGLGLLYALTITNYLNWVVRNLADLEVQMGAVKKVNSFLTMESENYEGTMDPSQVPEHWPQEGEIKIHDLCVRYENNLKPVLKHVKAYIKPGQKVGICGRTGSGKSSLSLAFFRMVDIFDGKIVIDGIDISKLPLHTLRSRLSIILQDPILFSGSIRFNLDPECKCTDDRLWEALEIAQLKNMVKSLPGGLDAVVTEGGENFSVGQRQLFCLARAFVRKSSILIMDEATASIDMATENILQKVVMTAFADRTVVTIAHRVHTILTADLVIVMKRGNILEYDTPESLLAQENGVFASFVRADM
T1 sequence (Q14654 whole entry): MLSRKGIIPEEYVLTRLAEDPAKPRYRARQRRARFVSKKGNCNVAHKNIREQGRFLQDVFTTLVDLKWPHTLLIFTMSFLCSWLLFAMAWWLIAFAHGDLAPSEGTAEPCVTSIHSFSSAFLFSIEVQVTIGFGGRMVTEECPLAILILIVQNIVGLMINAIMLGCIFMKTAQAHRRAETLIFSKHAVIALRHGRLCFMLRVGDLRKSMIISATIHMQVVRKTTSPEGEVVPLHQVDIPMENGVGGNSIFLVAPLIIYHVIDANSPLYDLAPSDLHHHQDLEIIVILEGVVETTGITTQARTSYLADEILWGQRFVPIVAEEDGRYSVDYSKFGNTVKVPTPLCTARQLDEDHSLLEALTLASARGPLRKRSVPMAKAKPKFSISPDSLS

SMILES | EC50
CC1(C)Oc2ccc(C#N)cc2[C@@H](Nc2noc3cc(Cl)ccc23)[C@@H]1O [Compound 67, (3S,4R)-4-(6-Chloro-benzo[d]isoxazol-3-ylamino)-3-hydroxy-2,2-dimethyl-chroman-6-carbonitrile] | 6.18 µM
CC1(C)Oc2ccc(C#N)cc2[C@@H](n2nc(N)c3cc(Cl)ccc32)[C@@H]1O [Compound 33, 4R-(3-Amino-5-chloro-indazol-1-yl)-3S-hydroxy-2,2-dimethyl-chroman-6-carbonitrile] | 6.85 µM
CC1(C)Oc2ccc(C#N)cc2[C@@H](Oc2ccn(-c3ccc(Cl)cc3)n2)[C@@H]1O (racemic) [Compound 55, 4-[1-(4-Chloro-phenyl)-1H-pyrazol-3-yloxy]-3-hydroxy-2,2-dimethyl-chroman-6-carbonitrile] | 8.82 µM
CC1(C)C=C(Oc2nsc3cc([N+](=O)[O-])ccc23)c2cc(C#N)ccc2O1 [Compound 69, (3S,4R)-2,2-Dimethyl-R-(6-nitro-benzo[d]isothiazol-3-yloxy)-2H-chromene-6-carbonitrile] | > 30 µM
CC1(C)Oc2ccc(C#N)cc2[C@@H](Nc2nc3cc(Cl)ccc3s2)[C@@H]1O (racemic) [Compound 1, 4-(5-Chloro-benzothiazol-2-ylamino)-3-hydroxy-2,2-dimethyl-chroman-6-carbonitrile] | 14.6 µM
CC1(C)Oc2ccc(C#N)cc2[C@@H](n2nc(-c3ccc(Cl)cc3)ccc2=O)[C@@H]1O (racemic) [Compound 14, 4-[3-(4-Chloro-phenyl)-6-oxo-6H-pyridazin-1-yl]-3-hydroxy-2,2-dimethyl-chroman-6-carbonitrile] | > 30 µM
CC1(C)Oc2cc(Cl)c(Cl)cc2[C@@H](Oc2noc3cc(Cl)ccc23)[C@@H]1O [Compound 93, 6,7-Dichloro-4R-(6-chloro-benzo[d]isoxazol-3-yloxy)-2,2-dimethyl-chroman-3S-ol] | 20.5 µM
CC1(C)Oc2ccc(C#N)cc2[C@@H](Oc2nsc3cc([N+](=O)[O-])ccc23)[C@@H]1O [Compound 41, 3S-Hydroxy-2,2-dimethyl-4R-(6-nitro-benzo[d]isothiazol-3-yloxy)-chroman-6-carbonitrile] | 4.1 µM
CC1(C)Oc2ccc(C#N)cc2[C@@H](N2CCN(c3ccc(Cl)cc3)CC2)[C@@H]1O (racemic) [Compound 50, 4-[4-(4-Chloro-phenyl)-piperazin-1-yl]-3-hydroxy-2,2-dimethyl-chroman-6-carbonitrile] | > 30 µM
CC1(C)Oc2ccc(S(=O)(=O)c3ccccc3)cc2[C@@H](Nc2noc3cc(Cl)ccc23)[C@@H]1O [Compound 73, (3S,4R)-6-Benzenesulfonyl-4R-(6-chloro-benzo[d]isoxazol-3-ylamino)-2,2-dimethyl-chroman-3S-ol] | 5.19 µM
CC1(C)C=C(Oc2ccc(-c3ccccc3)nn2)c2cc(C#N)ccc2O1 [Compound 53, 2,2-Dimethyl-4-(6-phenyl-pyridazin-3-yloxy)-2H-chromene-6-carbonitrile] | 9.91 µM
CCN(CC)C(=O)c1ccc2c(c1)[C@@H](Nc1noc3ccc(Cl)cc13)[C@H](O)C(C)(C)O2 [Compound 89, 4R-(5-Chloro-benzo[d]isoxazol-3-ylamino)-3S-hydroxy-2,2-dimethyl-chroman-6-carboxylic acid diethylamide] | > 30 µM
CC1(C)Oc2ccc(S(=O)(=O)c3cccc(F)c3)cc2[C@@H](Oc2noc3cc(Cl)ccc23)[C@@H]1O [Compound 99, 4R-(6-Chloro-benzo[d]isoxazol-3-yloxy)-6-(3-fluoro-benzenesulfonyl)-2,2-dimethyl-chroman-3S-ol] | 21.5 µM
CC1(C)Oc2ccc(C#N)cc2[C@@H](S(=O)(=O)c2nc3cc(Cl)ccc3o2)[C@@H]1O (racemic) [Compound 17, 4-(5-Chloro-benzooxazole-2-sulfonyl)-3-hydroxy-2,2-dimethyl-chroman-6-carbonitrile] | 6.77 µM
CC1(C)Oc2ccc(C#N)cc2[C@@H](Sc2nccc(C(F)(F)F)n2)[C@@H]1O [Compound 43, 3S-Hydroxy-2,2-dimethyl-4R-(4-trifluoromethyl-pyrimidin-2-ylsulfanyl)-chroman-6-carbonitrile] | > 30 µM
CC1(C)Oc2ccc(S(=O)(=O)c3ccccc3)cc2[C@@H](n2oc3ccc(Cl)cc3c2=O)[C@@H]1O [Compound 76, 2-(6-Benzenesulfonyl-3S-hydroxy-2,2-dimethyl-chroman-4-yl)-5-chloro-4R-benzo[d]isoxazol-3-one] | 0.4 µM
CCN(CC)S(=O)(=O)c1ccc2c(c1)[C@@H](Oc1noc3cc(Cl)ccc13)[C@H](O)C(C)(C)O2 [Compound 79, 4R-(6-Chloro-benzo[d]isoxazol-3-yloxy)-3S-hydroxy-2,2-dimethyl-chroman-6-sulfonic acid diethylamide] | > 30 µM

SMILES | EC50
CC1(C)Oc2ccc(S(=O)(=O)c3ccc(Cl)cc3)cc2[C@@H](n2oc3cc(Cl)ccc3c2=O)[C@@H]1O [Compound 102, 6-Chloro-2-[6-(4-chloro-benzenesulfonyl)-3S-hydroxy-2,2-dimethyl-chroman-4-yl]-R-benzo[d]isoxazol-3-one] | 7.99 µM
COc1ccc2onc(O[C@@H]3c4cc(C#N)ccc4OC(C)(C)[C@H]3O)c2c1 [Compound 44, (3S,4R)-3-Hydroxy-4-(5-methoxy-benzo[d]isoxazol-3-yloxy)-2,2-dimethyl-chroman-6-carbonitrile] | 12.3 µM
CC1(C)Oc2ccc(C#N)cc2[C@@H](N2C(=O)c3ccc(Cl)cc3C2=O)[C@@H]1O [Compound 115, 4-(5-Chloro-1,3-dioxo-1,3-dihydro-isoindol-2-yl)-3-hydroxy-2,2-dimethyl-chroman-6-carbonitrile] | 3.16 µM
CC1(C)Oc2ccc(C#N)cc2[C@@H](N2C(=O)C(=O)c3cc(Cl)ccc32)[C@@H]1O [Compound 24, (3S,4R)-4-(5-Chloro-2,3-dioxo-2,3-dihydro-indol-1-yl)-3-hydroxy-2,2-dimethyl-chroman-6-carbonitrile] | 3.64 µM
CC1(C)Oc2ccncc2[C@@H](Nc2nc3cc(Cl)ccc3o2)[C@@H]1O (racemic) [Compound 107, 4-(5-Chloro-benzoxazol-2-ylamino)-2,2-dimethyl-3,4-dihydro-2H-pyrano[3,2-c]pyridin-3-ol] | > 30 µM
CC1(C)Oc2ccc(Cl)cc2[C@@H](n2ccnc2-c2ccccc2)[C@@H]1O (racemic) [Compound 49, 6-Chloro-2,2-dimethyl-4-(2-phenyl-imidazol-1-yl)-chroman-3-ol] | > 30 µM
CC1(C)Oc2ccc(C#N)cc2[C@@H](n2nc(N)c3ccccc32)[C@@H]1O [Compound 37, 4R-(3-Amino-indazol-1-yl)-3S-hydroxy-2,2-dimethyl-chroman-6-carbonitrile] | 20 µM
CC1(C)Oc2ccc(C(=O)c3ccccc3)cc2[C@@H](Oc2noc3cc(Cl)ccc23)[C@@H]1O [Compound 95] | 20.7 µM
CC1(C)Oc2ccc(Cl)cc2[C@@H](N2C(=O)CCN2c2ccccc2)[C@@H]1O (racemic) [Compound 13, 2-(6-Chloro-3-hydroxy-2,2-dimethyl-chroman-4-yl)-1-phenyl-pyrazolidin-3-one] | 3.16 µM
CC1(C)Oc2ccc(S(=O)(=O)c3ccc(Cl)cc3)cc2[C@@H](Oc2noc3cc(Cl)ccc23)[C@@H]1O [Compound 101, 6-(4-Chloro-benzenesulfonyl)-4R-(6-chloro-benzo[d]isoxazol-3-yloxy)-2,2-dimethyl-chroman-3S-ol] | > 30 µM
CCOc1ccc2sc(N[C@@H]3c4cc(C#N)ccc4OC(C)(C)[C@H]3O)nc2c1 (racemic) [Compound 4, 4-(5-Ethoxy-benzothiazol-2-ylamino)-3-hydroxy-2,2-dimethyl-chroman-6-carbonitrile] | 2.6 µM
CCN(CC)S(=O)(=O)c1ccc2c(c1)[C@@H](Nc1noc3cc(Cl)ccc13)[C@H](O)C(C)(C)O2 [Compound 81, 4R-(6-Chloro-benzo[d]isoxazol-3-ylamino)-3S-hydroxy-2,2-dimethyl-chroman-6-sulfonic acid diethylamide] | 13.6 µM
CC1(C)Oc2ccc(C#N)cc2[C@@H](n2nc(N)c3ccc(Br)cc32)[C@@H]1O [Compound 35, 4R-(3-Amino-6-bromo-indazol-1-yl)-3S-hydroxy-2,2-dimethyl-chroman-6-carbonitrile] | 4.4 µM
CC1(C)Oc2ccc(S(=O)(=O)N3CCCCC3)cc2[C@@H](Oc2noc3cc(Cl)ccc23)[C@@H]1O [Compound 83, 4R-(6-Chloro-benzo[d]isoxazol-3-yloxy)-2,2-dimethyl-6-(piperidine-1-sulfonyl)-chroman-3S-ol] | > 30 µM
CC1(C)Oc2ccc(C#N)cc2[C@@H](Nc2nc3cc([N+](=O)[O-])ccc3s2)[C@@H]1O (racemic) [Compound 6, 3-Hydroxy-2,2-dimethyl-4-(5-nitro-benzothiazol-2-ylamino)-chroman-6-carbonitrile] | 3.09 µM
CC1(C)Oc2ccc(C#N)cc2[C@@H](NS(=O)(=O)c2cccc(Cl)c2)[C@@H]1O [Compound 66, (3S,4R)-3-Chloro-N-(6-cyano-3-hydroxy-2,2-dimethyl-chroman-4-yl)-benzenesulfonamide] | 1.54 µM
CC1(C)Oc2ccc(C#N)cc2[C@@H](S(=O)(=O)c2noc3cc(Cl)ccc23)[C@@H]1O (racemic) [Compound 19, 4-(6-Chloro-benzo[d]isoxazole-3-sulfonyl)-3-hydroxy-2,2-dimethyl-chroman-6-carbonitrile] | 15.4 µM
